Experimental data as given in ChEMBL document CHEMBL5233224, “Therapeutic potential of targeting SHP2 in human developmental disorders and cancers” (Eur J Med Chem, 2020).
Each block holds one compound with its values, some of them ahead of it.

Legend:
[1] = molecular target: T1, Tyrosine-protein phosphatase non-receptor type 11 (Homo sapiens, UniProt Q06124); experiment: Inhibition of SHP2 (unknown origin)
T1 sequence (Q06124 whole entry): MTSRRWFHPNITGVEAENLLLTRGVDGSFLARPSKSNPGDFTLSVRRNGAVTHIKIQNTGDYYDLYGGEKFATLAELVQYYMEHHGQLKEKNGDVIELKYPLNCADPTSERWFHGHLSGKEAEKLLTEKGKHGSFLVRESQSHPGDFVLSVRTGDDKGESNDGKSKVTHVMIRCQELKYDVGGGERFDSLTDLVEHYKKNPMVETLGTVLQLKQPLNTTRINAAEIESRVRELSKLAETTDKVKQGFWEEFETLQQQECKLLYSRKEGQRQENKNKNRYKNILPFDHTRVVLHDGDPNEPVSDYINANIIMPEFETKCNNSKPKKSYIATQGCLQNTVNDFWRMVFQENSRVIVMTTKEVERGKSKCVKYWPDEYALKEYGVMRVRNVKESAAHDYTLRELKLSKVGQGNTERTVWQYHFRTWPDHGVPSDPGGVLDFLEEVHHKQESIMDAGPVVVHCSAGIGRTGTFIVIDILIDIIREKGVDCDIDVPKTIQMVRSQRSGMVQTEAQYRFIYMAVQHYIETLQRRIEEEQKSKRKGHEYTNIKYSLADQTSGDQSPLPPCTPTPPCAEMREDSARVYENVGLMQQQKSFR

[2] = molecular target: Tyrosine-protein phosphatase non-receptor type 11 (Homo sapiens) (UniProt Q06124); experiment: Inhibition of SHP2 (unknown origin) at 100 ug/ml; details: dose 100.0 µg/ml
[3] = molecular target: T1, Tyrosine-protein phosphatase non-receptor type 11; experiment: Inhibition of GST fused SHP2 PTP domain (unknown origin) using Thr-Arg-Asp-Ile-Tyr[PO3H2]-Glu-Thr-Asp-Tyr-Tyr as substrate incubated for 30 mins by malachite green staining based analysis
[4] = molecular target: T1, Tyrosine-protein phosphatase non-receptor type 11; experiment: Inhibition of SHP2 (unknown origin) using pNPP as substrate by spectrophotometer analysis
[5] = molecular target: T1, Tyrosine-protein phosphatase non-receptor type 11; experiment: Inhibition of GST fused SHP2 PTP domain (unknown origin) using EFpYAEVGRSPPDPAK peptide as substrate incubated for 30 mins by malachite green staining based analysis
[6] = molecular target: Tyrosine-protein phosphatase non-receptor type 6 (Homo sapiens, UniProt P29350); experiment: Inhibition of SHP1 (unknown origin)
Chain of Tyrosine-protein phosphatase non-receptor type 6 (P29350 whole entry): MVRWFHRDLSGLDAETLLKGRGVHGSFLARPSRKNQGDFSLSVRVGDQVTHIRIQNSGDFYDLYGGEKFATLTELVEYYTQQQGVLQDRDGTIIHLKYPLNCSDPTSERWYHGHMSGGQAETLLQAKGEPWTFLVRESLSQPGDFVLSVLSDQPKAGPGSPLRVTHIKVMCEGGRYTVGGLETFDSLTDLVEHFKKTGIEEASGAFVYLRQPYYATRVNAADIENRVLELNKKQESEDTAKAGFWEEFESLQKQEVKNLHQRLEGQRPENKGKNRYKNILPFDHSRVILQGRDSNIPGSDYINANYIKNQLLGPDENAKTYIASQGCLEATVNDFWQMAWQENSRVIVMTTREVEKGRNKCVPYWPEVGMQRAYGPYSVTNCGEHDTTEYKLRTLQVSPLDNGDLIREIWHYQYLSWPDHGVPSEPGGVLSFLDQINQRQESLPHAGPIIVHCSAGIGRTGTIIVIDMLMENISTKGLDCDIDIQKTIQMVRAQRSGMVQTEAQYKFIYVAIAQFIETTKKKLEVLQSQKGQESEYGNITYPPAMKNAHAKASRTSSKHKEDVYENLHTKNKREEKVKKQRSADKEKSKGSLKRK

BaF3 = experiment: Antiproliferative activity against mouse BaF3 cells assessed as cell growth inhibition measured after 48 hrs by MTS assay; format: functional, cell-based; details: BaF3, 48 h
[7] = molecular target: T1, Tyrosine-protein phosphatase non-receptor type 11; experiment: Inhibition of human His6-tagged wild type SHP2 PTP domain using pNPP as substrate by absorbance based analysis
[8] = molecular target: T1, Tyrosine-protein phosphatase non-receptor type 11; experiment: Inhibition of human SHP2 (225 to 541 residues) using pNPP as substrate by microplate reader based analysis
[9] = molecular target: T1, Tyrosine-protein phosphatase non-receptor type 11; experiment: Binding affinity to SHP2 (unknown origin) assessed as inhibition constant
[10] = molecular target: T2, Receptor-type tyrosine-protein phosphatase O (Homo sapiens, UniProt Q16827); experiment: Binding affinity to GLEPP1 (unknown origin) assessed as inhibition constant
T2 sequence (Q16827 whole entry): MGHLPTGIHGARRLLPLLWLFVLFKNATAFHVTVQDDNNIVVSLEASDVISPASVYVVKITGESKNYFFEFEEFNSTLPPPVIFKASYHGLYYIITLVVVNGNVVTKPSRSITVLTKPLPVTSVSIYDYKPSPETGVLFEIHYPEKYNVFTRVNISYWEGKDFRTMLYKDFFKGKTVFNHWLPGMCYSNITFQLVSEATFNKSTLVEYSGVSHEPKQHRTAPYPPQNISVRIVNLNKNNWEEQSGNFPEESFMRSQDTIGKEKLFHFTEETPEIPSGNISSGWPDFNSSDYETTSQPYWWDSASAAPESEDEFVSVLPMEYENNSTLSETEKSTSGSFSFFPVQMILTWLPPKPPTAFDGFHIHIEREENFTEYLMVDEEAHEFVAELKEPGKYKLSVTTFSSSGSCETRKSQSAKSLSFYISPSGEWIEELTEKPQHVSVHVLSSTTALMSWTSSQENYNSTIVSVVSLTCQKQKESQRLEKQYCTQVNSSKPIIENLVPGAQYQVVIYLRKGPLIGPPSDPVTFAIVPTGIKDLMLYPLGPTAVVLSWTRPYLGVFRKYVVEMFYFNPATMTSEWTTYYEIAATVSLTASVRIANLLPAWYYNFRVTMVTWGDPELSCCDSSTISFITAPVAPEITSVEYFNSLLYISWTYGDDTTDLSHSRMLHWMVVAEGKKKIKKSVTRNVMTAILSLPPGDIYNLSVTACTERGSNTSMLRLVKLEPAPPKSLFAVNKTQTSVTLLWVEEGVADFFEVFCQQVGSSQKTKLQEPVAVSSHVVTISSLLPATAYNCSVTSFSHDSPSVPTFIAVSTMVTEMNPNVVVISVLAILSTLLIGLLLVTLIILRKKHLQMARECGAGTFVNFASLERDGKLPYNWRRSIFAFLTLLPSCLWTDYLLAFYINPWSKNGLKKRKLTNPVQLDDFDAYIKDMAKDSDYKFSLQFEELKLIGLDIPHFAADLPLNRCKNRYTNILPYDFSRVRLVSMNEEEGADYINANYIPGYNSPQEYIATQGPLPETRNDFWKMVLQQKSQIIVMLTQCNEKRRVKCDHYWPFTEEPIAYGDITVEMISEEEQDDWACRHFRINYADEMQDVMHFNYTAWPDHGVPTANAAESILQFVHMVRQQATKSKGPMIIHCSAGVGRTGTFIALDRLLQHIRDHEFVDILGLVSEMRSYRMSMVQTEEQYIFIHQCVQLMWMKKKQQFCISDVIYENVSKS

Compound: COc1cccc(-c2nnc3n(Cc4ccc(C(=O)N5CCC[C@H]5C(=O)O)cc4Cl)c(=O)c4ccccc4n23)c1O
IC50 [1]: 18.9 µM

Compound: C=C/C(=C/C(=O)C[C@H](C)C[C@@H](C)CC[C@H](O)[C@H](C)C(=O)C[C@@H](O)[C@H](C)[C@@H](C)OC(=O)C[C@@H](O)/C(C(=O)O)=C(\C)C(=O)O)CC
IC50 [4]: 2.9 µM

Compound: O=C(CCn1cnc2sc3c(c2c1=O)CCCCC3)Nc1ccccc1[N+](=O)[O-]
IC50 [5]: 9.97 µM
IC50 [6]: > 100 µM
IC50 (BaF3): 10.7 µM

Compound: CCOC(=O)c1ccc(N2N=C(c3ccc([N+](=O)[O-])cc3)/C(=N/Nc3ccc(S(=O)(=O)O)cc3)C2=O)cc1
IC50 [8]: 0.63 µM

Compound: O=C1C=CC(=O)C(c2cc(Cl)ccc2Cl)=C1
IC50 [1]: 0.4 µM

The remaining lines, values ahead:

inhibition [2]: 99%
Compound: (3R,4S,5R)-1-(((3S,4R,5R)-3-(carboxymethyl)-1-hydroxy-5-((R)-1-hydroxypropan-2-yl)-2,6,7-trioxa-1l5-stibabicyclo[2.2.1]heptan-1-yl)oxy)-5-((R)-1,2-dihydroxyethyl)-1-hydroxy-2,6,7-trioxa-1l5-stibabicyclo[2.2.1]heptane-3-carboxylic acid

IC50 [3]: 13.9 µM
Compound: Cc1cc(C)c2c(c1)[nH]c1nnc(SCC(=O)NCc3cccs3)nc12

IC50 [1]: 21 µM
Compound: O=C(O)c1ccc(O)c(-c2nnc3n(Cc4ccccc4Cl)c(=O)c4ccccc4n23)c1

IC50 [7]: 35 µM
Compound: C=CC(=O)Nc1ccnc2ccccc12

Ki [9]: 0.652 µM
Ki [10]: 0.123 µM
Compound: CCCCCCN(Cc1ccc(C#Cc2ccc(CCCC)cc2)cc1)c1ccc(O)c(C(=O)O)c1
